Reference: patent EP4570802A1, “SALT TYPE AND CRYSTAL FORM OF BENZAZEPINE FUSED RING COMPOUND AND USE THEREOF” (SHANGHAI JEYOU PHARMACEUTICAL CO., LTD., priority 2022, dated 2024)
Converted amounts (≈) assume the structure as drawn. Structures can show the parent of a compound that is named as a salt. Where two headings read alike, the source gives them in different places.

What was measured:
Assay type in all cases: physicochemical
[1] = Dynamic vapor sorption analysis (DVS)
Protocol: Dynamic vapor sorption analysis was performed using DVS Intrinsic (SMS, UK). The test was performed in gradient mode with a humidity change of 50%-95%-0%-50%, and 10% humidity change per gradient in the range of 0% to 90%. The gradient endpoint was determined by dm/dt, and was defined as when dm/dt was less than 0.002% and maintained for 10 minutes. After the test was completed, the sample was analyzed by XRPD to confirm whether the solid morphology had changed.

[2] = Stability study (solid state, XRPD characterization after 7 days and 15 days); conditions: for Results after 7 days: XRPD characterization after 7 days; for Results after 15 days: XRPD characterization after 15 days
Protocol: Approximately 20 mg of sample was weighed into a weighing bottle and exposed to high temperature (60°C), high humidity (25°C/92.5% RH), light (25°C/4500 Lux), and accelerated (40°C/75% RH) conditions, followed by sampling for XRPD characterization after 7 days and 15 days.
Samples were taken for XRPD characterization after 7 days and 15 days. 62 to 65. […]

[3] = Solubility test in biological media (dynamic solubility in FaSSIF, FeSSIF, FaSSGF; pH of the 24-hour supernatant; XRPD of remaining solid); conditions: for Final pH: 24-hour supernatant; for Solubility (mg/mL) 0.5 h: 30 min; for Solubility (mg/mL) 2h: 120 min; for Solubility (mg/mL) 24 h: 1440 min; for XRPD for remaining solid: remaining solid after 24 hours; for solubility at 0.5 h: read-out: Solubility (mg/mL) 0.5 h; for solubility at 2 h: read-out: Solubility (mg/mL) 2h; for solubility at 24 h: read-out: Solubility (mg/mL) 24 h
Protocol: Samples of different crystal forms were added to biological media and shaken at a constant temperature of 37°C for 24 hours, followed by sampling at 0.5 hours, 2 hours, and 24 hours, respectively, and the sampled solution was filtered using a 0.22 µm hydrophilic filter membrane. Some of the samples with higher concentrations were appropriately diluted with a diluent, and the signal peak area of the solution was measured by HPLC. Finally, the concentration of the compound in the solution was calculated based on the peak area, the HPLC standard curve of the starting material, and the dilution factor. In addition, the 24-hour supernatant was tested for pH, and the remaining solid was subjected to XRPD testing.

[4] = FaSSGF, listed as Crystal form A of maleate
[5] = FaSSGF, pH 1.6, 37°C, listed as Crystal form A of maleate
[6] = FaSSIF, listed as Crystal form A of maleate
[7] = FaSSIF, pH 6.5, 37°C, listed as Crystal form A of maleate
[8] = FeSSIF, listed as Crystal form A of maleate
[9] = FeSSIF, pH 5.0-5.1, 37°C, listed as Crystal form A of maleate
[10] = FaSSGF, listed as Crystal form C of fumarate
[11] = FaSSIF, listed as Crystal form C of fumarate
[12] = FeSSIF, listed as Crystal form C of fumarate
[13] = FaSSGF, listed as Crystal form N
[14] = FaSSGF, pH 1.6, 37°C, listed as Crystal form N
[15] = FaSSIF, listed as Crystal form N
[16] = FaSSIF, pH 6.5, 37°C, listed as Crystal form N
[17] = FeSSIF, listed as Crystal form N
[18] = FeSSIF, pH 5.0-5.1, 37°C, listed as Crystal form N
[19] = Water, listed as Crystal form N
[20] = FaSSGF, listed as Crystal form S
[21] = FaSSGF, pH 1.6, 37°C, listed as Crystal form S
[22] = FaSSIF, listed as Crystal form S
[23] = FaSSIF, pH 6.5, 37°C, listed as Crystal form S
[24] = FeSSIF, listed as Crystal form S
[25] = FeSSIF, pH 5.0-5.1, 37°C, listed as Crystal form S
[26] = Water, listed as Crystal form S

Compound: O=C(Nc1ccc(C(=O)N2CC[C@@H]3CCN[C@H]3c3cc(Cl)ccc32)cn1)c1ccccc1C(F)(F)F [crystal form A of maleate]
- weight loss ([1]; DVS, at 0% RH): 0.24%
- weight gain ([1]; DVS, at 80% RH): 0.09%
- weight gain ([1]; DVS, at 95% RH): 0.23%
- hygroscopicity ([1]; conclusion from DVS): almost no hygroscopicity
- XRPD after DVS testing ([1]; solid form after DVS testing): no morphological change
- stability (crystal transformation by XRPD) ([2]; high temperature (60°C), high humidity (25°C/92.5% RH), light (25°C/4500 Lux) and accelerated (40°C/75% RH) conditions, 15 days): stable
- Final pH [3, 4]: 1.7
- Solubility (mg/mL) 0.5 h [3, 5]: 1.44 mg/mL
- Solubility (mg/mL) 2h [3, 5]: 1.43 mg/mL
- Solubility (mg/mL) 24 h [3, 5]: 1.02 mg/mL
- XRPD for remaining solid [3, 4]: Crystal form A of maleate + new peak
- Final pH [3, 6]: 6.1
- Solubility (mg/mL) 0.5 h [3, 7]: 0.66 mg/mL
- Solubility (mg/mL) 2h [3, 7]: 0.69 mg/mL
- Solubility (mg/mL) 24 h [3, 7]: 0.57 mg/mL
- XRPD for remaining solid [3, 6]: Obvious change
- Final pH [3, 8]: 5.0
- Solubility (mg/mL) 0.5 h [3, 9]: 1.08 mg/mL
- Solubility (mg/mL) 2h [3, 9]: 1.28 mg/mL
- Solubility (mg/mL) 24 h [3, 9]: 0.31 mg/mL
- XRPD for remaining solid [3, 8]: Obvious change

Compound: O=C(Nc1ccc(C(=O)N2CC[C@@H]3CCN[C@H]3c3cc(Cl)ccc32)cn1)c1ccccc1C(F)(F)F [crystal form C of fumarate]
- Final pH [3, 10]: 1.7
- solubility at 0.5 h ([3]; FaSSGF, pH 1.6, 37°C): 0.65 mg/mL
- solubility at 2 h ([3]; FaSSGF, pH 1.6, 37°C): 0.7 mg/mL
- solubility at 24 h ([3]; FaSSGF, pH 1.6, 37°C): 0.71 mg/mL
- XRPD for remaining solid [3, 10]: Obvious change
- Final pH [3, 11]: 6.1
- solubility at 0.5 h ([3]; FaSSIF, pH 6.5, 37°C): 0.38 mg/mL
- solubility at 2 h ([3]; FaSSIF, pH 6.5, 37°C): 0.35 mg/mL
- solubility at 24 h ([3]; FaSSIF, pH 6.5, 37°C): 0.28 mg/mL
- XRPD for remaining solid [3, 11]: Crystal form C of fumarate + new peak
- Final pH [3, 12]: 5.0
- solubility at 0.5 h ([3]; FeSSIF, pH 5.0-5.1, 37°C): 0.66 mg/mL
- solubility at 2 h ([3]; FeSSIF, pH 5.0-5.1, 37°C): 0.74 mg/mL
- solubility at 24 h ([3]; FeSSIF, pH 5.0-5.1, 37°C): 0.68 mg/mL
- XRPD for remaining solid [3, 12]: Crystal form C of fumarate + new peak

Compound: O=C(Nc1ccc(C(=O)N2CC[C@@H]3CCN[C@H]3c3cc(Cl)ccc32)cn1)c1ccccc1C(F)(F)F [crystal form N]
- Results after 7 days ([2]; Accelerated, 40°C/75% RH): No change
- Results after 15 days ([2]; Accelerated, 40°C/75% RH): No change
- Results after 7 days ([2]; High humidity, 25°C/92.5% RH): No change
- Results after 15 days ([2]; High humidity, 25°C/92.5% RH): No change
- Results after 7 days ([2]; Light, 25°C/4500 Lux): No change
- Results after 15 days ([2]; Light, 25°C/4500 Lux): No change
- Final pH [3, 13]: 2.0
- Solubility (mg/mL) 0.5 h [3, 14]: > 7.61 mg/mL
- Solubility (mg/mL) 2h [3, 14]: > 7.89 mg/mL
- Solubility (mg/mL) 24 h [3, 14]: > 7.98 mg/mL
- XRPD for remaining solid [3, 13]: No solid
- Final pH [3, 15]: 6.5
- Solubility (mg/mL) 0.5 h [3, 16]: 0.06 mg/mL (≈ 117 µM)
- Solubility (mg/mL) 2h [3, 16]: 0.07 mg/mL (≈ 136 µM)
- Solubility (mg/mL) 24 h [3, 16]: 0.08 mg/mL (≈ 155 µM)
- XRPD for remaining solid [3, 15]: Crystal form N
- Final pH [3, 17]: 5.1
- Solubility (mg/mL) 0.5 h [3, 18]: 0.80 mg/mL (≈ 1550 µM)
- Solubility (mg/mL) 2h [3, 18]: 0.97 mg/mL (≈ 1880 µM)
- Solubility (mg/mL) 24 h [3, 18]: 0.94 mg/mL (≈ 1830 µM)
- XRPD for remaining solid [3, 17]: Crystal form N
- Final pH [3, 19]: 7.5
- Solubility (mg/mL) 2h ([3]; Water, 37°C, listed as Crystal form N): 0.011 mg/mL (≈ 21.4 µM)
- XRPD for remaining solid [3, 19]: Crystal form N
- solubility at 0.5 h ([3]; water, 37°C): 0.004 mg/mL (≈ 7.77 µM)
- solubility at 24 h ([3]; water, 37°C): 0.004 mg/mL (≈ 7.77 µM)

Compound: O=C(Nc1ccc(C(=O)N2CC[C@@H]3CCN[C@H]3c3cc(Cl)ccc32)cn1)c1ccccc1C(F)(F)F [crystal form S]
- Results after 7 days ([2]; High temperature, 60°C): No change
- Results after 15 days ([2]; High temperature, 60°C): No change
- Final pH [3, 20]: 2.0
- Solubility (mg/mL) 0.5 h [3, 21]: > 7.19 mg/mL
- Solubility (mg/mL) 2h [3, 21]: > 7.35 mg/mL
- Solubility (mg/mL) 24 h [3, 21]: 2.15 mg/mL (≈ 4180 µM)
- XRPD for remaining solid [3, 20]: Amorphous*
- Final pH [3, 22]: 6.5
- Solubility (mg/mL) 0.5 h [3, 23]: 0.03 mg/mL (≈ 58.3 µM)
- Solubility (mg/mL) 2h [3, 23]: 0.04 mg/mL (≈ 77.7 µM)
- Solubility (mg/mL) 24 h [3, 23]: 0.04 mg/mL (≈ 77.7 µM)
- XRPD for remaining solid [3, 22]: Crystal form S
- Final pH [3, 24]: 5.1
- Solubility (mg/mL) 0.5 h [3, 25]: 0.40 mg/mL (≈ 777 µM)
- Solubility (mg/mL) 2h [3, 25]: 0.44 mg/mL (≈ 854 µM)
- Solubility (mg/mL) 24 h [3, 25]: 0.43 mg/mL (≈ 835 µM)
- XRPD for remaining solid [3, 24]: Crystal form S
- Final pH [3, 26]: 7.4
- Solubility (mg/mL) 2h ([3]; Water, 37°C, listed as Crystal form S): 0.001 mg/mL (≈ 1.94 µM)
- XRPD for remaining solid [3, 26]: Crystal form S
